Tested on: endometriotic-like cells
Experiment: Estrogen (E2) production ability of endometriotic-like cells from androgens of adrenal origin, Estradiol EIA
Type: cell-based, human
Conditions: final concentration 1 mM, 48 hours, cells produced in the step (3)
Procedure: In this Experimental Example, the cells produced in the step (3) were confirmed for their ability to produce estradiol (E2), which was an estrogen. The cells (1×10^5 cells) produced in the step (3) were added to 1 ml of a low-carbon-source proliferation culture medium supplemented with bovine serum albumin (BSA) at 0.1% (v/v) in place of FBS, inoculated into a 12-well plate having a surface coated with collagen type I (derived from rat tail, BD Biosciences, Cat. No. 354236), and cultured for 24 hours at 37° C. in the presence of 5% CO2.
After that, A-dione (Tokyo Chemical Industry Co., Ltd.; androstenedione), DHEA (Tokyo Chemical Industry Co., Ltd.), or DHEA-sulfate (Tokyo Chemical Industry Co., Ltd.; DHEA-S, inactivated adrenal androgen), which was an androgen of adrenal origin, was added to the culture medium so that the final concentration became 1 mM, and the cells were further cultured for 48 hours. As a control (vehicle), the cells were cultured in the same manner as described above except that dimethylsulfoxide (DMSO), which was a solvent, was added in place of the androgen.
The concentration of E2 in the culture supernatant was measured by using Estradiol EIA kit (Cayman Chemical, Cat. No. 582251) according to the manual of the kit.

| Compound | E2 production from the added androgen (concentration of E2 in the culture supernatant) |
| --- | --- |
| C[C@]12CCC(=O)C=C1CC[C@@H]1[C@@H]2CC[C@]2(C)C(=O)CC[C@@H]12 [A-dione, androstenedione] | produced E2 |
| C[C@]12CC[C@H](O)CC1=CC[C@@H]1[C@@H]2CC[C@]2(C)C(=O)CC[C@@H]12 [DHEA, dehydoepiandorosterone] | produced E2 |
| C[C@]12CC[C@H](OS(=O)(=O)O)CC1=CC[C@@H]1[C@@H]2CC[C@]2(C)C(=O)CC[C@@H]12 [DHEA-S, DHEA-sulfate] | did not produce E2 |

Reference: patent US20160192626A1, “Method For Creating Endometriotic Cells And Endometriosis Model Animal” (KYOTO UNIVERSITY, priority 2013, published 2016)
